The values that follow come from patent US7572818B2, “2-pyridylethylbenzamide derivative” (Bayer Cropscience S.A., priority 2002, dated 2009).

The test system of one test is Alternaria brassicae. The test is described as follows: In vivo test of activity on Alternaria brassicae (crucifer black spot) on radish. The settings on record: 250 g/ha, preventive spray 24 h before inoculation. The procedure:
In Vivo Test of Activity on Alternaria brassicae (Crucifer Black Spot)
An aqueous solution of the active material to be tested is prepared at a concentration of 2 g/l by grinding in solution 1 or solution 2:
• Water • Tween 80 diluted to 10% in water: 5 μl/mg of active material • Clay in a sufficient amount for active material+clay to equal 100 mg; Solution 2
Concentrated solution containing surfactants and adjuvants conventionally used: 200 μl/mg of active material.
The aqueous solution is diluted with water so as to obtain the desired concentration.
Radishes of the Pernot variety are sown in a 50/50 pozzolan/peat substrate and maintained at 18-22° C. The treatment is carried out by spraying the aqueous suspension. The untreated control plants are sprayed with water. 24 hours after treatment, the plants are inoculated by spraying a solution of Alternaria brassicae spores (40 000 spores/ml) originating from a 12-day culture.
The radish plants are then maintained at 18-20° C. in a humid atmosphere. The effectiveness of the products is evaluated relative to the control plants after seven to eight days of incubation.
The effectiveness of the molecules is estimated, at 500 g/ha, 250 g/ha or 330 ppm, by the percentage of control relative to untreated plants. Under these conditions, good effectiveness is defined as more than 80% effectiveness. Average effectiveness is defined as an effectiveness between 50 and 80%. Poor effectiveness is defined as an effectiveness between 10 and 50% and zero effectiveness is defined as less than 10% effectiveness.
Take `O=C(NCCc1ncc(C(F)(F)F)cc1Cl)c1ccccc1[N+](=O)[O-]` [Compound A-29]: the “effectiveness (percentage of control relative to untreated plants)” value is reported as “good to average”. On the same count and under the same terms, with `O=C(NCCc1ncc(C(F)(F)F)cc1Cl)c1cccc(C(F)(F)F)c1` [Compound A-28] the entry was “good to average”.

On to `O=C(NCCc1ncc(C(F)(F)F)cc1Cl)c1cc(F)c(F)cc1F` [Compound A-41], for which the “effectiveness (percentage of control relative to untreated plants)” value is reported as “good to average”.

The same test, now with this note: 330 ppm, preventive spray 24 h before inoculation.
With `CCc1cc(Br)ccc1C(=O)NCCc1ncc(C(F)(F)F)cc1Cl` [Compound A-152], the “effectiveness (percentage of control relative to untreated plants)” value was “good to average”. For the molecule `O=C(NCCc1ncc(C(F)(F)F)cc1Cl)c1c(F)ccc(F)c1Cl` [Compound A-113], the “effectiveness (percentage of control relative to untreated plants)” value is “good to average”. Still for that read-out and setting: in the case of `CSc1c(Br)ccc(C(=O)NCCc2ncc(C(F)(F)F)cc2Cl)c1F` [Compound A-168] it was “good to average”; in that of `O=C(NCCc1ncc(C(F)(F)F)cc1Cl)c1ccc(C(F)(F)F)cc1C(F)(F)F` [Compound A-74], “good to average”. The same measure, in the same setting: with `Cc1cccc(C(=O)NCCc2ncc(C(F)(F)F)cc2Cl)c1N` [Compound A-194] the entry was “good to average”; with `COc1cc(Cl)c(C(=O)NCCc2ncc(C(F)(F)F)cc2Cl)cc1OC` [Compound A-181], “good to average”; with `Cc1cccc(C(=O)NCCc2ncc(C(F)(F)F)cc2Cl)c1C` [Compound A-60], “good to average”. `CSc1cc(Cl)ccc1C(=O)NCCc1ncc(C(F)(F)F)cc1Cl` [Compound A-127]: the “effectiveness (percentage of control relative to untreated plants)” value is given as “good to average”. As for `CSc1c(C(=O)NCCc2ncc(C(F)(F)F)cc2Cl)ccc(Cl)c1Br` [Compound A-146], the “effectiveness (percentage of control relative to untreated plants)” value is given as “good to average”. Still for that read-out and setting: in the case of `O=C(NCCc1ncc(C(F)(F)F)cc1Cl)c1cc(I)c(O)c(I)c1` [Compound A-169] it was “good to average”.

In the case of `Cc1ccc(F)c(C(=O)NCCc2ncc(C(F)(F)F)cc2Cl)c1Cl` [Compound A-124], the “effectiveness (percentage of control relative to untreated plants)” value is given as “good to average”. Regarding `Cc1c(C(=O)NCCc2ncc(C(F)(F)F)cc2Cl)ccc(Cl)c1F` [Compound A-162], the “effectiveness (percentage of control relative to untreated plants)” value is “good to average”. With `CS(=O)(=O)c1cc(Cl)ccc1C(=O)NCCc1ncc(C(F)(F)F)cc1Cl` [Compound A-128], the “effectiveness (percentage of control relative to untreated plants)” value is reported as “good to average”.

On to `CSc1ccc(C(=O)NCCc2ncc(C(F)(F)F)cc2Cl)c(C)c1` [Compound A-142], for which the “effectiveness (percentage of control relative to untreated plants)” value was “good to average”. Consider `Cc1cc(C(=O)NCCc2ncc(C(F)(F)F)cc2Cl)c([N+](=O)[O-])cc1C` [Compound A-156], for which the “effectiveness (percentage of control relative to untreated plants)” value was “good to average”. Take `O=C(NCCc1ncc(C(F)(F)F)cc1Cl)c1cc(I)ccc1Cl` [Compound A-185]: the “effectiveness (percentage of control relative to untreated plants)” value is recorded as “good to average”. Consider `O=C(NCCc1ncc(C(F)(F)F)cc1Cl)c1cccc(F)c1Br` [Compound A-122], for which the “effectiveness (percentage of control relative to untreated plants)” value was “good to average”.

`Cc1ccc(F)cc1C(=O)NCCc1ncc(C(F)(F)F)cc1Cl` [Compound A-186]: the “effectiveness (percentage of control relative to untreated plants)” value was “good to average”. In the case of `O=C(NCCc1ncc(C(F)(F)F)cc1Cl)c1c(C(F)(F)F)ccc(Cl)c1F` [Compound A-75], the “effectiveness (percentage of control relative to untreated plants)” value is reported as “good to average”.

`COc1cc(OC)c(C(=O)NCCc2ncc(C(F)(F)F)cc2Cl)cc1OC` [Compound A-84]: the “effectiveness (percentage of control relative to untreated plants)” value is reported as “good to average”.

For the molecule `Cc1ccc([N+](=O)[O-])cc1C(=O)NCCc1ncc(C(F)(F)F)cc1Cl` [Compound A-79], the “effectiveness (percentage of control relative to untreated plants)” value is “good to average”. Regarding `O=C(NCCc1ncc(C(F)(F)F)cc1Cl)c1ccc(Cl)c(C(F)(F)F)c1` [Compound A-147], the “effectiveness (percentage of control relative to untreated plants)” value was “good to average”. With `CC(C)c1c(Br)cccc1C(=O)NCCc1ncc(C(F)(F)F)cc1Cl` [Compound A-151], the “effectiveness (percentage of control relative to untreated plants)” value was “good to average”.

On to `Cc1ccc(Cl)c(C(=O)NCCc2ncc(C(F)(F)F)cc2Cl)c1` [Compound A-184], for which the “effectiveness (percentage of control relative to untreated plants)” value was “good to average”. Turning to `O=C(NCCc1ncc(C(F)(F)F)cc1Cl)c1cc(C(F)(F)F)ccc1C(F)(F)F` [Compound A-72], the “effectiveness (percentage of control relative to untreated plants)” value is recorded as “good to average”. Turning to `CSc1ccc(Cl)c(C(=O)NCCc2ncc(C(F)(F)F)cc2Cl)c1` [Compound A-99], the “effectiveness (percentage of control relative to untreated plants)” value was “good to average”. Take `O=C(NCCc1ncc(C(F)(F)F)cc1Cl)c1ccc(I)c(Br)c1` [Compound A-158]: the “effectiveness (percentage of control relative to untreated plants)” value was “good to average”. Take `CCOc1ccccc1C(=O)NCCc1ncc(C(F)(F)F)cc1Cl` [Compound A-86]: the “effectiveness (percentage of control relative to untreated plants)” value is “good to average”. Still for that read-out and setting: in the case of `CS(=O)(=O)c1ccc(C(=O)NCCc2ncc(C(F)(F)F)cc2Cl)c(C(F)(F)F)c1` [Compound A-138] it was “good to average”; in that of `O=C(NCCc1ncc(C(F)(F)F)cc1Cl)c1cccc(Cl)c1Cl` [Compound A-48], “good to average”; in that of `Cc1cccc(C(=O)NCCc2ncc(C(F)(F)F)cc2Cl)c1Cl` [Compound A-178], “good to average”. Turning to `O=C(NCCc1ncc(C(F)(F)F)cc1Cl)c1cc(Br)ccc1I` [Compound A-183], the “effectiveness (percentage of control relative to untreated plants)” value is “good to average”. `O=C(NCCc1ncc(C(F)(F)F)cc1Cl)c1cc(Cl)ccc1I` [Compound A-188]: the “effectiveness (percentage of control relative to untreated plants)” value was “good to average”. In the case of `Cc1cccc(C(=O)NCCc2ncc(C(F)(F)F)cc2Cl)c1I` [Compound A-179], the “effectiveness (percentage of control relative to untreated plants)” value is recorded as “good to average”.

Turning to `CS(=O)(=O)c1cc(C(F)(F)F)ccc1C(=O)NCCc1ncc(C(F)(F)F)cc1Cl` [Compound A-139], the “effectiveness (percentage of control relative to untreated plants)” value is “good to average”. Regarding `CCCOc1ccccc1C(=O)NCCc1ncc(C(F)(F)F)cc1Cl` [Compound A-91], the “effectiveness (percentage of control relative to untreated plants)” value was “good to average”. Consider `CS(=O)(=O)c1ccc(C(=O)NCCc2ncc(C(F)(F)F)cc2Cl)c(Br)c1` [Compound A-137], for which the “effectiveness (percentage of control relative to untreated plants)” value is “good to average”. Still for that read-out and setting: with `COc1c(F)ccc(C(=O)NCCc2ncc(C(F)(F)F)cc2Cl)c1SC` [Compound A-148] the entry was “good to average”. On the same count and under the same terms, in the case of `O=C(NCCc1ncc(C(F)(F)F)cc1Cl)c1cc(Cl)ccc1Br` [Compound A-100] it was “good to average”; in that of `CSc1ccc(C(=O)NCCc2ncc(C(F)(F)F)cc2Cl)c(Br)c1` [Compound A-150], “good to average”; in that of `COc1cc(I)c(C(=O)NCCc2ncc(C(F)(F)F)cc2Cl)cc1OC` [Compound A-189], “good to average”. Turning to `CSc1c(F)ccc(C(=O)NCCc2ncc(C(F)(F)F)cc2Cl)c1F` [Compound A-165], the “effectiveness (percentage of control relative to untreated plants)” value is reported as “good to average”. With `COc1ccc(OC)c(C(=O)NCCc2ncc(C(F)(F)F)cc2Cl)c1` [Compound A-85], the “effectiveness (percentage of control relative to untreated plants)” value is given as “good to average”. Turning to `O=C(NCCc1ncc(C(F)(F)F)cc1Cl)c1ccccc1O` [Compound A-52], the “effectiveness (percentage of control relative to untreated plants)” value is given as “good to average”.

Turning to `Cc1ccc(C)c(C(=O)NCCc2ncc(C(F)(F)F)cc2Cl)c1` [Compound A-62], the “effectiveness (percentage of control relative to untreated plants)” value is “good to average”. In the case of `Cc1c(C(=O)NCCc2ncc(C(F)(F)F)cc2Cl)cccc1[N+](=O)[O-]` [Compound A-77], the “effectiveness (percentage of control relative to untreated plants)” value is reported as “good to average”.

On to `O=C(NCCc1ncc(C(F)(F)F)cc1Cl)c1c(F)cccc1Br` [Compound A-112], for which the “effectiveness (percentage of control relative to untreated plants)” value was “good to average”.

`COc1ccc(C(C)(C)C)cc1C(=O)NCCc1ncc(C(F)(F)F)cc1Cl` [Compound A-92]: the “effectiveness (percentage of control relative to untreated plants)” value is on record as “good to average”. Same read-out and setting: with `CSc1cc(C(F)(F)F)ccc1C(=O)NCCc1ncc(C(F)(F)F)cc1Cl` [Compound A-143] the entry was “good to average”. Regarding `O=C(NCCc1ncc(C(F)(F)F)cc1Cl)c1ccc(Cl)c(Br)c1` [Compound A-141], the “effectiveness (percentage of control relative to untreated plants)” value is given as “good to average”.

With `COc1cc([N+](=O)[O-])ccc1C(=O)NCCc1ncc(C(F)(F)F)cc1Cl` [Compound A-171], the “effectiveness (percentage of control relative to untreated plants)” value is “good to average”.
